The source of these data is US6506772B1, “Substituted [1,2,4]triazolo[1,5a]pyridine derivatives with activity as adenosine receptor ligands” (Hoffmann-La Roche Inc., priority 2000, dated 2003).

Test [1] concerns the target T1, human adenosine A2A receptor (Homo sapiens, UniProt P29274).
T1 construct: expressed in transfected cells; host or cells: CHO cells, Semliki Forest virus expression system; membrane preparation
As to the kind of experiment: Human adenosine A2A receptor [3H]-SCH-58261 binding assay. The settings on record: for Ki: affinity to human adenosine A2A receptor, read-out: Ki HA2A; for selectivity (A1/A2a): calculated ratio of the affinity to the HA1 receptor to the HA2a receptor.

In another test the target is T2, HA1 adenosine receptor (Homo sapiens, UniProt P30542).
T2 sequence (P30542 1-326): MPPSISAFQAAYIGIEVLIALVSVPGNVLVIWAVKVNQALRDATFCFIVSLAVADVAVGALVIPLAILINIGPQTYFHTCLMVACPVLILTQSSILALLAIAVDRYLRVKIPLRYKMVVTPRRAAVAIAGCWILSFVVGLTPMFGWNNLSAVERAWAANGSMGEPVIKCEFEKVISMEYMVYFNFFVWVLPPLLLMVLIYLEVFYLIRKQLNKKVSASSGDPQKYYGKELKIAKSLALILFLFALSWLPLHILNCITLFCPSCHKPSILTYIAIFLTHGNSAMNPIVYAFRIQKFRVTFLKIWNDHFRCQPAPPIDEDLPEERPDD
As to the kind of experiment: Human adenosine A1 receptor affinity (Ki hA1). The settings on record: affinity to human adenosine A1 receptor. It is filed as binding.

T1 sequence (P29274 whole entry): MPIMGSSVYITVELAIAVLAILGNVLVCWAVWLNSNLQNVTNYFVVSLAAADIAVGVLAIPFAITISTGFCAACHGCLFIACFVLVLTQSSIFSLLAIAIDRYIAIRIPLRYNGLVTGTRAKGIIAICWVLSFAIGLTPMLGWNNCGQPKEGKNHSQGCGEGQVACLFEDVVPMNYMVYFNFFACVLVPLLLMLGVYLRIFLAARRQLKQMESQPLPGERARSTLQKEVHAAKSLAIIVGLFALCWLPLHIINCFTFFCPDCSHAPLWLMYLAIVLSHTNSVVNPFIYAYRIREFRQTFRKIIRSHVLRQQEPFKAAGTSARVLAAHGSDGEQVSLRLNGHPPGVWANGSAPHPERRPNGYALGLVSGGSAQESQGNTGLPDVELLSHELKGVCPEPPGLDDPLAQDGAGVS

The Ki is a measure of affinity in units of concentration, obtained from inhibition or displacement. In the case of `Nc1cc(C(=O)NCc2ccccc2)cc2nc(-c3ccoc3)nn12` [Example 224, 5-Amino-2-furan-3-yl-[1,2,4]triazolo[1,5-a]pyridine-7-carboxylic acid benzylamide], the Ki was determined as 47.4 nM in test [1] and 216 nM at HA1 adenosine receptor. Besides, in test [1], the “selectivity (A1/A2a)” value is 4.5.

Turning to `CC(NC(=O)c1cc(N)n2nc(-c3ccoc3)nc2c1)c1ccccc1` (stereo not drawn) [Example 225, 5-Amino-2-furan-3-yl-[1,2,4]triazolo[1,5-a]pyridine-7-carboxylic acid (1-phenyl-ethyl)-amide], in test [1], the Ki amounted to 103 nM and the “selectivity (A1/A2a)” value is 1.2. This compound also showed a Ki at HA1 adenosine receptor of 125 nM.

With `CN(Cc1ccccc1)C(=O)c1cc(N)n2nc(-c3ccoc3)nc2c1` [Example 226, 5-Amino-2-furan-3-yl-[1,2,4]triazolo[1,5-a]pyridine-7-carboxylic acid benzyl-methyl-amide], in test [1], the Ki stood at 121 nM and the “selectivity (A1/A2a)” value was 8.4. Also, at HA1 adenosine receptor, the affinity corresponds to a Ki of 1010 nM.

Take `Nc1cc(C(=O)NCc2ccc(F)cc2)cc2nc(-c3ccoc3)nn12` [Example 227, 5-Amino-2-furan-3-yl-[1,2,4]triazolo[1,5-a]pyridine-7-carboxylic acid 4-fluoro-benzylamide]: in test [1], the Ki is 192 nM and the “selectivity (A1/A2a)” value is given as 3.8. At HA1 adenosine receptor, this compound came in with a Ki of 736 nM.

On to `COc1ccccc1CNC(=O)c1cc(N)n2nc(-c3ccoc3)nc2c1` [Example 228, 5-Amino-2-furan-3-yl-[1,2,4]triazolo[1,5-a]pyridine-7-carboxylic acid 2-methoxy-benzylamide], for which, in test [1], the inhibition constant (Ki) was 30.5 nM and the “selectivity (A1/A2a)” value is on record as 5.4. Also, on HA1 adenosine receptor, the Ki is 164 nM.

`CCN(CC)C(=O)c1cc(N)n2nc(-c3ccc(Cl)o3)nc2c1` [Example 233, 5-Amino-2-(5-chloro-furan-2-yl)-[1,2,4]triazolo[1,5-a]pyridine-7-carboxylic acid diethylamide]: the values for the Ki (in test [1]; on HA1 adenosine receptor) were 7.2 nM and 280 nM, respectively. Besides, the “selectivity (A1/A2a)” value in test [1] is given as 38.7.

For `Nc1cc(C(=O)NC2CCCCC2)cc2nc(-c3ccc(Cl)o3)nn12` [Example 234, 5-Amino-2-(5-chloro-furan-2-yl)-[1,2,4]triazolo[1,5-a]pyridine-7-carboxylic acid cyclohexylamide], in test [1], the Ki was determined as 69.5 nM and the “selectivity (A1/A2a)” value was 6.6. This compound also came in with a Ki at HA1 adenosine receptor of 455 nM.

Turning to `Nc1cc(C(=O)N2CCCC2)cc2nc(-c3ccc(Cl)o3)nn12` [Example 235, [5-Amino-2-(5-chloro-furan-2-yl)-[1,2,4]triazolo[1,5-a]pyridin-7-yl]-pyrrolidin-1-yl-methanone], the inhibition constant Ki came to 18.1 nM in test [1] and 770 nM at HA1 adenosine receptor. Moreover, the “selectivity (A1/A2a)” value in test [1] is recorded as 42.5.

In the case of `Nc1cc(C(=O)N2CCCCC2)cc2nc(-c3ccc(Cl)o3)nn12` [Example 236, [5-Amino-2-(5-chloro-furan-2-yl)-[1,2,4]triazolo[1,5-a]pyridin-7-yl]-piperidin-1-yl-methanone], in test [1], the Ki came to 9.2 nM and the “selectivity (A1/A2a)” value is 35.2. This compound gave a Ki on HA1 adenosine receptor of 325 nM.

For `Nc1cc(C(=O)N2CCOCC2)cc2nc(-c3ccc(Cl)o3)nn12` [Example 237, [5-Amino-2-(5-chloro-furan-2-yl)-[1,2,4]triazolo[1,5-a]pyridin-7-yl]-morpholin-4-yl-methanone], in test [1], the Ki is 52.3 nM and the “selectivity (A1/A2a)” value is 13.5. This compound also yielded a Ki on HA1 adenosine receptor of 708 nM.

For the compound `Nc1cc(C(=O)NCc2ccccc2)cc2nc(-c3ccc(Cl)o3)nn12` [Example 238, 5-Amino-2-(5-chloro-furan-2-yl)-[1,2,4]triazolo[1,5-a]pyridine-7-carboxylic acid benzylamide], in test [1], the Ki was determined as 40.4 nM and the “selectivity (A1/A2a)” value was 2.3. Also, the Ki on HA1 adenosine receptor is 94.3 nM.
